Source: patent US20250333397A1 (REMIX THERAPEUTICS INC., priority 2021, published 2025)
Like-named read-outs stand apart in the source and are kept apart here.

Assays:
Type in all cases: cell-based, human
Target C mRNA = experiment: RT-qPCR splicing assay panel, Target C canonical junction (CJ) mRNA
Method in brief: (§1)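 Junction-specific RT-qPCR read the canonical exon-exon junction and the compound-induced alternative-exon junction, normalized to GAPDH, GUSB or PPIA and then to DMSO (2^(-ΔΔCt)). Input was lysate from A673 or K562 cells exposed for 24 h to compound up to 10 uM.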

SMN2 mRNA = experiment: RT-qPCR splicing assay panel, SMN2 canonical junction (CJ) mRNA
Method in brief: as §1

MYB mRNA = experiment: RT-qPCR splicing assay, MYB canonical (CJ) and alternative (AJ) junction mRNA; conditions: for AC50: read-out: MYB AJ (AC50, increase in AJ mRNA)
Method in brief: as §1

HTT mRNA = experiment: RT-qPCR splicing assay, HTT canonical (CJ) and alternative (AJ) junction mRNA; conditions: for AC50: read-out: HTT AJ (AC50, increase in AJ mRNA)
Method in brief: as §1

[1] = Homo sapiens, canonical junction (CJ) mRNA, RT-qPCR panel, Table 4A, read-out: Target C, decrease in CJ mRNA levels, IC50
[2] = Homo sapiens, canonical junction (CJ) mRNA, RT-qPCR panel, Table 4A, read-out: SMN2, decrease in CJ mRNA levels, IC50
[3] = Homo sapiens, 24 h, Table 3A, A673 or K562 cells, 24 h treatment
[4] = Homo sapiens, 24 h, Table 3A, A673 or K562 cells, 24 h treatment, read-out: MYB CJ (IC50, decrease in CJ mRNA)
[5] = Homo sapiens, canonical junction (CJ) mRNA, RT-qPCR panel, Table 4A, read-out: MYB, decrease in CJ mRNA levels, IC50
[6] = Homo sapiens, 24 h, Table 3A, A673 or K562 cells, 24 h treatment, read-out: HTT CJ (IC50, decrease in CJ mRNA)
[7] = Homo sapiens, canonical junction (CJ) mRNA, RT-qPCR panel, Table 4A, read-out: HTT, decrease in CJ mRNA levels, IC50
[8] = Homo sapiens, Table 4B, gene panel, read-out: Target C (IC50, decrease in CJ mRNA levels)
[9] = Homo sapiens, Table 4B, gene panel, read-out: SMN2 (IC50, decrease in CJ mRNA levels)
[10] = Homo sapiens, 24 h, Table 3B, A673 or K562 cells, 24 h treatment
[11] = Homo sapiens, 24 h, Table 3B, A673 or K562 cells, 24 h treatment, read-out: MYB CJ (IC50, decrease in CJ mRNA)
[12] = Homo sapiens, Table 4B, gene panel, read-out: MYB (IC50, decrease in CJ mRNA levels)
[13] = Homo sapiens, 24 h, Table 3B, A673 or K562 cells, 24 h treatment, read-out: HTT CJ (IC50, decrease in CJ mRNA)
[14] = Homo sapiens, Table 4B, gene panel, read-out: HTT (IC50, decrease in CJ mRNA levels)
[15] = Table 3A, A673 or K562 cells, 24 h treatment

Structure (SMILES)	IC50 (Target C mRNA; [1])	IC50 (SMN2 mRNA; [2])	AC50 (MYB mRNA; [3])	IC50 (MYB mRNA; [4])	IC50 (MYB mRNA; [5])	AC50 (HTT mRNA; [3])	IC50 (HTT mRNA; [6])	IC50 (HTT mRNA; [7])	other results
CN(C1CCC1)[C@@H]1CCN(c2ccc(-c3ccc(-c4cn[nH]c4)cc3O)nn2)C1 [Compound 296, 2-{6-[(3R)-3-[cyclobutyl(methyl)amino]pyrrolidin-1-yl]pyridazin-3-yl}-5-(1H-pyrazol-4-yl)phenol]	100 to 1000 nM	< 100 nM	100 to 1000 nM	100 to 1000 nM	100 to 1000 nM	100 to 1000 nM	100 to 1000 nM	100 to 1000 nM	
COc1cc(-c2ccc(-c3ccc(N4CC[C@@H](N(C)C(C)(C)C)C4)nn3)c(O)c2)cnn1 [Compound 336, 2-{6-[(3R)-3-[tert-butyl(methyl)amino]pyrrolidin-1-yl]pyridazin-3-yl}-5-(6-methoxypyridazin-4-yl)phenol]	< 100 nM	< 100 nM	< 100 nM	< 100 nM	< 100 nM	< 100 nM	< 100 nM	< 100 nM	
COc1cc(-c2ccc(-c3ccc(N4CCC(C)(NC5CCC5)C4)nn3)c(O)c2)cnn1 (stereo not drawn) [Compound 275]	< 100 nM	< 100 nM	100 to 1000 nM	100 to 1000 nM	100 to 1000 nM	< 100 nM	< 100 nM	< 100 nM	
Cc1nc2cc(O)c(-c3ccc(N4CCC(NC(C)(C)C(C)(C)C)C4)nn3)cc2o1 (stereo not drawn) [Compound 835]									IC50 (Target C mRNA; [8]): 100 to 1000 nM; IC50 (SMN2 mRNA; [9]): 100 to 1000 nM; AC50 (MYB mRNA; [10]): 100 to 1000 nM; IC50 (MYB mRNA; [11]): 100 to 1000 nM; IC50 (MYB mRNA; [12]): 100 to 1000 nM; AC50 (HTT mRNA; [10]): 100 to 1000 nM; IC50 (HTT mRNA; [13]): 100 to 1000 nM; IC50 (HTT mRNA; [14]): 100 to 1000 nM
Cc1nc(-c2ccc(-c3ccc(N4CCC(NC5CCC5)C4)nn3)c(O)c2)cs1 (stereo not drawn) [Compound 413]									IC50 (Target C mRNA; canonical junction (CJ) mRNA, RT-qPCR panel, Table 4A, read-out: Target C, decrease in CJ mRNA levels, IC50): > 10000 nM; IC50 (SMN2 mRNA; canonical junction (CJ) mRNA, RT-qPCR panel, Table 4A, read-out: SMN2, decrease in CJ mRNA levels, IC50): 1000 to 10000 nM; AC50 (MYB mRNA; [15]): 1000 to 10000 nM; IC50 (MYB mRNA; Table 3A, A673 or K562 cells, 24 h treatment, read-out: MYB CJ (IC50, decrease in CJ mRNA)): 1000 to 10000 nM; IC50 (MYB mRNA; canonical junction (CJ) mRNA, RT-qPCR panel, Table 4A, read-out: MYB, decrease in CJ mRNA levels, IC50): 1000 to 10000 nM; AC50 (HTT mRNA; [15]): 1000 to 10000 nM; IC50 (HTT mRNA; Table 3A, A673 or K562 cells, 24 h treatment, read-out: HTT CJ (IC50, decrease in CJ mRNA)): 1000 to 10000 nM; IC50 (HTT mRNA; canonical junction (CJ) mRNA, RT-qPCR panel, Table 4A, read-out: HTT, decrease in CJ mRNA levels, IC50): 1000 to 10000 nM
Oc1cc(-c2cn[nH]c2)ccc1-c1ccc(N2CCC(NC3(CF)CC3)C2)nn1 (stereo not drawn) [Compound 112, 2-[6-(3-{[1-(fluoromethyl)cyclopropyl]amino}pyrrolidin-1-yl)pyridazin-3-yl]-5-(1H-pyrazol-4-yl)phenol]	100 to 1000 nM	< 100 nM	< 100 nM	100 to 1000 nM	100 to 1000 nM	< 100 nM	< 100 nM	< 100 nM	
CC(C)(C)NC1CCN(c2ccc(-c3cc4ccncc4cc3O)nn2)C1 (stereo not drawn) [Compound 845]									IC50 (Target C mRNA; [8]): 100 to 1000 nM; IC50 (SMN2 mRNA; [9]): < 100 nM; AC50 (MYB mRNA; [10]): 100 to 1000 nM; IC50 (MYB mRNA; [11]): 100 to 1000 nM; IC50 (MYB mRNA; [12]): 100 to 1000 nM; AC50 (HTT mRNA; [10]): < 100 nM; IC50 (HTT mRNA; [13]): < 100 nM; IC50 (HTT mRNA; [14]): < 100 nM
COc1cc(-c2ccc(-c3ccc(N4CCC(NCC5CC5)C4)nn3)c(O)c2)nc(C)n1 (stereo not drawn) [Compound 371]	> 10000 nM	1000 to 10000 nM	> 10000 nM	> 10000 nM	> 10000 nM	1000 to 10000 nM	1000 to 10000 nM	1000 to 10000 nM	
COc1cc(-c2cc(O)c(-c3ccc(N4CC[C@H](NC5CCC5)C4)nn3)cc2F)cnn1 [Compound 231, 2-{6-[(3S)-3-(cyclobutylamino)pyrrolidin-1-yl]pyridazin-3-yl}-4-fluoro-5-(6-methoxypyridazin-4-yl)phenol]	100 to 1000 nM	< 100 nM	100 to 1000 nM	100 to 1000 nM	100 to 1000 nM	< 100 nM	< 100 nM	< 100 nM	
Cc1nc2cc(O)c(-c3ccc(N4CCC(C)(NC(C)(C)C)C4)nn3)cc2o1 (stereo not drawn) [Compound 837]									IC50 (Target C mRNA; [8]): 1000 to 10000 nM; IC50 (SMN2 mRNA; [9]): 100 to 1000 nM; AC50 (MYB mRNA; [10]): 1000 to 10000 nM; IC50 (MYB mRNA; [11]): 1000 to 10000 nM; IC50 (MYB mRNA; [12]): 1000 to 10000 nM; AC50 (HTT mRNA; [10]): 1000 to 10000 nM; IC50 (HTT mRNA; [13]): 100 to 1000 nM; IC50 (HTT mRNA; [14]): 100 to 1000 nM
Oc1cc(-c2cn[nH]c2)c(F)cc1-c1ccc(N2CCC(NC3CC3)C2)nn1 (stereo in doubt) [Compound 105, 2-{6-[(3R)-3-(cyclopropylamino)pyrrolidin-1-yl]pyridazin-3-yl}-4-fluoro-5-(1H-pyrazol-4-yl)phenol]	< 100 nM	< 100 nM	100 to 1000 nM	100 to 1000 nM	100 to 1000 nM	< 100 nM	< 100 nM	< 100 nM	
Oc1cc(-c2ccc(-c3ccc(N4CC[C@H](NC5CCC5)C4)nn3)c(O)c2)cnn1 [Compound 420, 5-(4-{6-[(3S)-3-(cyclobutylamino)pyrrolidin-1-yl]pyridazin-3-yl}-3-hydroxyphenyl)pyridazin-3-ol]	1000 to 10000 nM	100 to 1000 nM	> 10000 nM	1000 to 10000 nM	1000 to 10000 nM	1000 to 10000 nM	100 to 1000 nM	100 to 1000 nM	
Cc1ncc(-c2cc(O)c(-c3ccc(N4CC[C@@](C)(NCC5CC5)C4)nn3)cc2F)s1 (single isomer, unassigned) [Compound 399]	< 100 nM	< 100 nM	100 to 1000 nM	100 to 1000 nM	100 to 1000 nM	< 100 nM	< 100 nM	< 100 nM	
COc1cc(-c2ccc(-c3ccc(OC4CC(C)(C)NC(C)(C)C4)nn3)c(O)c2)cnn1 [Compound 271]	< 100 nM	< 100 nM	100 to 1000 nM	< 100 nM	< 100 nM	< 100 nM	< 100 nM	< 100 nM	
Oc1cc(-c2cnc(C(F)(F)F)s2)c(F)cc1-c1ccc(N2CCC(NC3CCC3)C2)nn1 (stereo not drawn) [Compound 390]	> 10000 nM	1000 to 10000 nM	> 10000 nM	> 10000 nM	> 10000 nM	> 10000 nM	> 10000 nM	> 10000 nM	
